One assay concerns NF-κB pathway. Nature of the assay: TNF-α assay (THP-1 cells differentiated to macrophages with IFN-γ, NF-κB pathway activated with LPS; ELISA). Particulars: compound 30 min, 50 ng/mL LPS 3 hours. Format: cell-based, Human. The method, then: (§1) The biological activity of Compound (I) with respect to NLRP3 was determined using the following in vitro methods.
TNF-α Assay (Reported as IC50)
Monocytic THP-1 cells (ATCC: TIB-202) were maintained in accordance with the provider's instructions in RPMI media (Life Technologies, Cat #A10491-01); RPMI was supplemented with 10% heat inactivated fetal bovine serum (Hyclone Cat #SH30396.03). The cells were differentiated into macrophages by the addition of 25 ng/mL IFN-γ for 24 hours at 37 °C/5% CO2. Media was exchanged with fresh media with no FBS. The cells were plated at 40,000 cells per well in 384-well flat-bottom cell culture plates (Costar 3764) containing compounds (added in 1:1000) in a 1:3.16 serial dilution series in DMSO and were incubated for 30 minutes at 37 °C/5% CO2. The NF-κB pathway was activated with the addition of 50 ng/mL LPS and the cells were incubated for 3 hours at 37 °C/5% CO2. At the end of the incubation period, supernatant ([…]) was removed, and […] were monitored using an ELISA (Human TNF-α ELISA, R&D systems, Cat #DY210) according to the manufacturer's instructions.
(§2) The IC50 values were calculated from a plot of percentage of inhibition versus the inhibitor concentration by a logistics curve fit according to: Y=[Bottom+(Top−Bottom)]/(1+10^[(Log IC50−X)·Hill Slope], where Y is the % inhibition at the inhibitor concentration, X, “Bottom” is the lowest inhibition value, i.e., 0%, “Top” is the maximum inhibition value, i.e., 100%, and the “Hill Slope” describes the slope of the sigmoidal curve between the “Bottom” and “Top” values. The curve fitting was conducted with XLfit (ver. 5.5.0.5, ID Business Solutions Limited) or internally developed software.
(§3) Table 2 lists in vitro biological assay data (IL-1β and TNF-α) for the compounds shown in the examples. These assays are described in the section entitled Biological Activity, above.
On the technique in general: ELISA stands for enzyme-linked immunosorbent assay.

Another assay has as its target T1, NLRP3 inflammasome (Homo sapiens, UniProt Q96P20).
T1 construct: IL-1beta HTRF
The assay can be described thus: IL-1β TR-FRET assay (THP-1 cells differentiated to macrophages with IFN-γ, LPS primed, ATP activated; HTRF). Format: cell-based. The following applies: THP-1 macrophages, 50 ng/mL LPS priming, compound 30 min, 20 mM ATP 2 hours. The protocol:
as §1
IL-1β TR-FRET Assay (Reported as IC50)
Monocytic THP-1 cells (ATCC: TIB-202) were maintained in accordance with the provider's instructions in RPMI media (Life Technologies, Cat #A10491-01); RPMI was supplemented with 10% heat inactivated fetal bovine serum (Corning, Cat #35-010-CV). The cells were differentiated into macrophages by the addition of 25 ng/mL IFN-γ (PeproTech, Cat #AF300-02-100UG) for 24 hours at 37 °C/5% CO2. Media was exchanged with fresh media with no FBS, and the cells were treated with 50 ng/mL LPS (priming step) (LPS-EK: Invivogen, Cat #tlrl-peklps). The cells were plated at 240,000 cells per well in 384-well flat-bottom cell culture plates (FALCON, Cat #353962) and were incubated for 24 hours at 37 °C/5% CO2. Compounds were serially diluted (half log dilutions) with DMSO and were finally diluted with Media with no FBS. The compounds were added to the cells in 384-well plates (added in 1:3) and then the plates were incubated for 30 minutes at 37 °C/5% CO2. The NLRP3 inflammasome was activated with the addition of 20 mM ATP (Sigma Cat #A3377-25G) and the cells were incubated for 2 hours at 37 °C/5% CO2. At the end of the incubation period, 30 μL supernatant was transferred to another 384-well plate and mixed on a plate shaker for 1 minutes. The supernatant was mixed with HTRF Antibody (Human IL1 beta kit, Cisbio, 62HIL1BPEH) in assay plates (Greiner Bio-One, Cat #784075) and the assay plates were incubated in shading box at room temperature for 16-24 hours. HTRF signal was measured by EnVision (Perkinelmer) in accordance with the manufacturer's instructions.
as §2, §3
Background: TR-FRET usually uses a lanthanide donor and a delayed reading to cut background.

Setting [1] is: Homo sapiens, THP-1, THP-1 macrophages.

Bounds are passed on as bounds.

T1 sequence (Q96P20 whole entry): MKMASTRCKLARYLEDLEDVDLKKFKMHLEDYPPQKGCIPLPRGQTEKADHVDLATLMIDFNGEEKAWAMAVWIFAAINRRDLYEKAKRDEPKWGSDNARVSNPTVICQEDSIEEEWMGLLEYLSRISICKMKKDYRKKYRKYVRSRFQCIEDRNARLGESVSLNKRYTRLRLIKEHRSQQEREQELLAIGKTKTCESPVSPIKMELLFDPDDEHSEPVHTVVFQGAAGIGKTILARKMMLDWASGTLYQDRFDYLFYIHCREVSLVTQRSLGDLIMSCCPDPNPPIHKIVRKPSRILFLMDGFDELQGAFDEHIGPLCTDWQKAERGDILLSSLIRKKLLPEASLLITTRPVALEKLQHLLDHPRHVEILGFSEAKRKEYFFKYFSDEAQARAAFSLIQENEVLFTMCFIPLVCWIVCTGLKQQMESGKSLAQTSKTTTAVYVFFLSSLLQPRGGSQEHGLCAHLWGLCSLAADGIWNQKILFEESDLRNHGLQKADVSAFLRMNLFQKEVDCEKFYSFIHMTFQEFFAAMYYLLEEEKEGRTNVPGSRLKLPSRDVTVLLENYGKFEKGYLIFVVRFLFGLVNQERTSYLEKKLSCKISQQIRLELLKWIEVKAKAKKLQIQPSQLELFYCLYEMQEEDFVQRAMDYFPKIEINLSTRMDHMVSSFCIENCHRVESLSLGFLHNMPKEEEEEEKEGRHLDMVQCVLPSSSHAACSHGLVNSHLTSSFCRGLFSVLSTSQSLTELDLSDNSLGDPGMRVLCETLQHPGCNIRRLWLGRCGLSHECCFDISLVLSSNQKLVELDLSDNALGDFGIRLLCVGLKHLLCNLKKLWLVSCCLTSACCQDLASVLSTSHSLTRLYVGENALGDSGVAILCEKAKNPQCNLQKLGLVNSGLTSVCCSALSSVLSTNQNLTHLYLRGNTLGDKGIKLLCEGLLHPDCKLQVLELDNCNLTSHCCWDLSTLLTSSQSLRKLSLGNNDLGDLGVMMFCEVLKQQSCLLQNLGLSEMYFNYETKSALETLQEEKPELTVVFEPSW

Regarding `Cc1cc(C)c(-n2cc3sc(N[C@@H]4CCCN(C5CCOC5)C4)nc3n2)c(O)c1` (single isomer, unassigned) [Example 71, 3,5-dimethyl-2-[5-({(3R)-1-[(S)-oxolan-3-yl]piperidin-3-yl}amino)-2H-pyrazolo[3,4-d][1,3]thiazol-2-yl]phenol or 3,5-dimethyl-2-[5-({(3R)-1-[(R)-oxolan-3-yl]piperidin-3-yl}amino)-2H-pyrazolo[3,4-d][1,3]thiazol-2-yl]phenol (tR1)], the IC50 was > 30 µM in the assay with NF-κB pathway (setting [1]) and 43 nM against NLRP3 inflammasome.

Take `Cc1cc(C)c(-n2cc3sc(N[C@@H]4CCCN(C5CCOC5)C4)nc3n2)c(O)c1` (single isomer, unassigned) [Example 72, 3,5-dimethyl-2-[5-({(3R)-1-[(S)-oxolan-3-yl]piperidin-3-yl}amino)-2H-pyrazolo[3,4-d][1,3]thiazol-2-yl]phenol or 3,5-dimethyl-2-[5-({(3R)-1-[(R)-oxolan-3-yl]piperidin-3-yl}amino)-2H-pyrazolo[3,4-d][1,3]thiazol-2-yl]phenol (tR2)]: the results for the IC50 in the assay on NF-κB pathway (THP-1 macrophages) and on NLRP3 inflammasome were > 30 µM and 29 nM, respectively.

With `Cc1cc(C)c(-n2cc3sc(N[C@@H]4C[C@@H](F)CN(C5CCOC5)C4)nc3n2)c(O)c1` (single isomer, unassigned) [Example 73, 2-[5-({(3R,5R)-5-fluoro-1-[(S)-oxolan-3-yl]piperidin-3-yl}amino)-2H-pyrazolo[3,4-d][1,3]thiazol-2-yl]-3,5-dimethylphenol or 2-[5-({(3R,5R)-5-fluoro-1-[(R)-oxolan-3-yl]piperidin-3-yl}amino)-2H-pyrazolo[3,4-d][1,3]thiazol-2-yl]-3,5-dimethylphenol (tR1)], the IC50 was > 30 µM with NF-κB pathway (setting [1]) and 860 nM on NLRP3 inflammasome.

Consider `Cc1cc(C)c(-n2cc3sc(N[C@@H]4C[C@@H](F)CN(C5CCOC5)C4)nc3n2)c(O)c1` (single isomer, unassigned) [Example 74, 2-[5-({(3R,5R)-5-fluoro-1-[(S)-oxolan-3-yl]piperidin-3-yl}amino)-2H-pyrazolo[3,4-d][1,3]thiazol-2-yl]-3,5-dimethylphenol or 2-[5-({(3R,5R)-5-fluoro-1-[(R)-oxolan-3-yl]piperidin-3-yl}amino)-2H-pyrazolo[3,4-d][1,3]thiazol-2-yl]-3,5-dimethylphenol (tR2)], for which the IC50 was > 30 µM in the assay on NF-κB pathway (THP-1 macrophages) and 560 nM against NLRP3 inflammasome.

In the case of `Cc1cc(O)c(-n2cc3sc(N[C@@H]4C[C@@H](F)CN(C)C4)nc3n2)c(C2CC2(F)F)c1` (single isomer, unassigned) [Example 126, 3-[(R)-2,2-difluorocyclopropyl]-2-(5-{[(3R,5R)-5-fluoro-1-methylpiperidin-3-yl]amino}-2H-pyrazolo[3,4-d][1,3]thiazol-2-yl)-5-methylphenol or 3-[(S)-2,2-difluorocyclopropyl]-2-(5-{[(3R,5R)-5-fluoro-1-methylpiperidin-3-yl]amino}-2H-pyrazolo[3,4-d][1,3]thiazol-2-yl)-5-methylphenol (tR2)], the IC50 is > 30 µM in the assay with NF-κB pathway (setting [1]) and 3.8 nM at NLRP3 inflammasome.

Regarding `Cc1cc(O)c(-n2cc3sc(N[C@@H]4C[C@@H](F)CN(C)C4)nc3n2)c(C2CC2(F)F)c1` (single isomer, unassigned) [Example 127, 3-[(R)-2,2-difluorocyclopropyl]-2-(5-{[(3R,5R)-5-fluoro-1-methylpiperidin-3-yl]amino}-2H-pyrazolo[3,4-d][1,3]thiazol-2-yl)-5-methylphenol or 3-[(S)-2,2-difluorocyclopropyl]-2-(5-{[(3R,5R)-5-fluoro-1-methylpiperidin-3-yl]amino}-2H-pyrazolo[3,4-d][1,3]thiazol-2-yl)-5-methylphenol (tR1)], the values for the IC50 with NF-κB pathway (THP-1 macrophages) and against NLRP3 inflammasome were > 30 µM and 15 nM, respectively.

Consider `Cc1cc(C)c(-n2cc3sc(N[C@H]4COC[C@@H]4F)nc3n2)c(O)c1` (single isomer, unassigned) [Example 142, 2-(5-{[(3R,4S)-4-fluorooxolan-3-yl]amino}-2H-pyrazolo[3,4-d][1,3]thiazol-2-yl)-3,5-dimethylphenol or 2-(5-{[(3S,4R)-4-fluorooxolan-3-yl]amino}-2H-pyrazolo[3,4-d][1,3]thiazol-2-yl)-3,5-dimethylphenol (tR1)], for which the IC50 with NF-κB pathway (setting [1]) is > 30 µM; against NLRP3 inflammasome, 550 nM.

With `Cc1cc(C)c(-n2cc3sc(N[C@H]4COC[C@@H]4F)nc3n2)c(O)c1` (single isomer, unassigned) [Example 143, 2-(5-{[(3R,4S)-4-fluorooxolan-3-yl]amino}-2H-pyrazolo[3,4-d][1,3]thiazol-2-yl)-3,5-dimethylphenol or 2-(5-{[(3S,4R)-4-fluorooxolan-3-yl]amino}-2H-pyrazolo[3,4-d][1,3]thiazol-2-yl)-3,5-dimethylphenol (tR2)], the IC50 with NF-κB pathway (THP-1 macrophages) is > 30 µM; at NLRP3 inflammasome, 430 nM.

For `Cc1cc(C)c(-n2cc3sc(N[C@H]4COC[C@H]4F)nc3n2)c(O)c1` (single isomer, unassigned) [Example 145, 2-(5-{[(3R,4R)-4-fluorooxolan-3-yl]amino}-2H-pyrazolo[3,4-d][1,3]thiazol-2-yl)-3,5-dimethylphenol or 2-(5-{[(3S,4S)-4-fluorooxolan-3-yl]amino}-2H-pyrazolo[3,4-d][1,3]thiazol-2-yl)-3,5-dimethylphenol (tR2)], the IC50 in the assay on NF-κB pathway (THP-1 macrophages) is > 30 µM; on NLRP3 inflammasome, 440 nM.

Consider `Cc1cc(C)c(-n2cc3sc(N[C@H]4CN(C)CCC4F)nc3n2)c(O)c1` (stereo in doubt) [Example 10, 2-(5-{[(3S,4S)-4-fluoro-1-methylpiperidin-3-yl]amino}-2H-pyrazolo[3,4-d][1,3]thiazol-2-yl)-3,5-dimethylphenol], for which the figures for the IC50 in the assay on NF-κB pathway (THP-1 macrophages) and against NLRP3 inflammasome were > 10 µM and 46 nM, respectively.

Regarding `CN1CCC[C@@H](Nc2nc3nn(-c4ccc(Br)cc4O)cc3s2)C1` [Example 1, 5-bromo-2-(5-{[(3R)-1-methylpiperidin-3-yl]amino}-2H-pyrazolo[3,4-d][1,3]thiazol-2-yl)phenol], the IC50 was > 10 µM in the assay on NF-κB pathway (setting [1]) and 25 nM on NLRP3 inflammasome.

With `Cc1cc(Cl)cc(O)c1-n1cc2sc(N[C@@H]3CCCN(C)C3)nc2n1` [Example 2, 5-chloro-3-methyl-2-(5-{[(3R)-1-methylpiperidin-3-yl]amino}-2H-pyrazolo[3,4-d][1,3]thiazol-2-yl)phenol], the IC50 in the assay on NF-κB pathway (setting [1]) is > 30 µM; against NLRP3 inflammasome, 1.6 nM.

Regarding `Cc1cc(C)c(-n2cc3sc(N[C@@H]4C[C@@H](F)CN(C)C4)nc3n2)c(O)c1` [Example 3, 2-(5-{[(3R,5R)-5-fluoro-1-methylpiperidin-3-yl]amino}-2H-pyrazolo[3,4-d][1,3]thiazol-2-yl)-3,5-dimethylphenol], the IC50 in the assay on NF-κB pathway (setting [1]) is > 30 µM; on NLRP3 inflammasome it was 8.2 nM.

As to `Cc1cc(C)c(-n2cc3sc(N[C@@H]4CCCN(C)C4)nc3n2)c(O)c1` [Example 4, 3,5-dimethyl-2-(5-{[(3R)-1-methylpiperidin-3-yl]amino}-2H-pyrazolo[3,4-d][1,3]thiazol-2-yl)phenol], the IC50 is > 30 µM in the assay with NF-κB pathway (setting [1]) and 3.6 nM at NLRP3 inflammasome.

Take `Cc1cc(F)cc(O)c1-n1cc2sc(N[C@@H]3CCCN(C)C3)nc2n1` [Example 5, 5-fluoro-3-methyl-2-(5-{[(3R)-1-methylpiperidin-3-yl]amino}-2H-pyrazolo[3,4-d][1,3]thiazol-2-yl)phenol]: the IC50 with NF-κB pathway (setting [1]) was > 30 µM; on NLRP3 inflammasome, 15 nM.

As a reminder, the IC50 is the concentration at which inhibition is half-maximal. Read a low IC50 as greater potency.

These data come from patent US20260365671A1, “HETEROCYCLIC COMPOUND” (Takeda Pharmaceutical Company Limited, priority 2022, published 2026).
